Assay type in all cases: cell-based
In assay [1] the target is T1, G6PD in fibroblast cells carrying Mediterranean variant (Homo sapiens, UniProt P11413, S188F).
T1 construct: host or cells: subject-derived fibroblast cell line
The assay can be described thus: Cycloheximide chase in fibroblasts. The settings on record: cycloheximide treatment. Here is the method:
Lymphocytes derived from a normal subject (HG 00866) and a G6PD-deficient subject carrying Canton variant in G6PD (HG 02367) were purchased from Coriell Institute and cultured in RPMI 1640 supplemented with 15% fetal bovine serum (FBS), 100 U/ml penicillin, and 100 μg/ml streptomycin. An SH-SY5Y neuroblastoma cell line was cultured in Dulbecco's Modification of Eagle's Medium/Ham's F-12 50/50 Mix supplemented with 10% FBS, 100 U/ml penicillin, and 100 μg/ml streptomycin. A G6PD-deficient subject-derived fibroblast cell line carrying Mediterranean variant and normal fibroblast cell line as control were purchased from Coriell Institute (GM 01152) and ThermoFisher Scientific (C0135C), respectively, and cultured in minimum essential medium supplemented with 15% FBS, 100 U/ml penicillin, and 100 μg/ml streptomycin. All the cell lines were maintained at 37° C. in a humidified incubator with an atmosphere of 5% of CO2 and 95% air.
50,000 cells (SH-SH5Y cells or fibroblast cells) or 100,000 cells (lymphocytes) were seeded in a 12-well plate and incubated overnight. The cells were subjected to serum starvation (50-75%) for 48 hours and treated with 50 μg/ml of cycloheximide at different time points (0-48 hours). The cells were treated with the compound (1 μM) for 48 hours together with cycloheximide. […]

Assay [2] has as its target T2, G6PD in human erythrocytes (Homo sapiens, UniProt P11413).
T2 construct: host or cells: human erythrocytes
The assay can be described thus: Erythrocyte refrigerated storage assay, G6PD activity. Particulars: AG1 1 μM. Here is the method: (§1) De-identified blood samples were obtained from the Stanford Blood Center. Erythrocytes were collected by filtering the samples through a cellulose slurry to remove platelets and leukocytes and then washed with saline. G6PD activity was measured (Beutler E. Red cell metabolism: A manual of biochemical methods (3rd edition). Grune & Stratton (1984)). […] A 5% erythrocyte suspension was pre-incubated with 1-5 μM AG1 at 4° C. overnight, which was followed by treatment with (or without) either 1 mM chloroquine (CQ) or 1 mM diamide for 3-4 hours at 37° C. (for hemolysis assay with chloroquine, the mixture was incubated under light). Then centrifugation at 1,000 rpm for 5 minutes was followed. Hemoglobin release in the supernatant was monitored by measuring absorbance at 540 nm. […] After wash, the samples were lysed with 0.1% Triton X-100 (final concentration), and the florescence was analyzed with excitation/emission at 485/525 nm. GSH measurement was determined using a Cayman glutathione assay kit (Cayman Chemicals, 703002). […] The absorbance was read at 412 nm. For storage assay, a 5% erythrocyte suspension was stored at 4° C. with and without 1 μM AG1, and hemolysis and G6PD activity were monitored every week for 28 days to examine whether AG1 improves preservation of erythrocytes over time. Protein leakage was also examined by measuring the absorbance of the supernatant of samples at 280 nm. […]

For a further assay, the system named is human erythrocytes. As to the kind of experiment: ROS levels in erythrocytes under oxidative stressors. The settings on record: drug-induced oxidative stress. Here is the method:
as §1

For assay [3], the system named is band 3 protein in human erythrocytes. The assay can be described thus: Band 3 protein clustering in erythrocytes. Particulars: chloroquine or diamide treatment.

T2 sequence (P11413 2-515 limits assumed): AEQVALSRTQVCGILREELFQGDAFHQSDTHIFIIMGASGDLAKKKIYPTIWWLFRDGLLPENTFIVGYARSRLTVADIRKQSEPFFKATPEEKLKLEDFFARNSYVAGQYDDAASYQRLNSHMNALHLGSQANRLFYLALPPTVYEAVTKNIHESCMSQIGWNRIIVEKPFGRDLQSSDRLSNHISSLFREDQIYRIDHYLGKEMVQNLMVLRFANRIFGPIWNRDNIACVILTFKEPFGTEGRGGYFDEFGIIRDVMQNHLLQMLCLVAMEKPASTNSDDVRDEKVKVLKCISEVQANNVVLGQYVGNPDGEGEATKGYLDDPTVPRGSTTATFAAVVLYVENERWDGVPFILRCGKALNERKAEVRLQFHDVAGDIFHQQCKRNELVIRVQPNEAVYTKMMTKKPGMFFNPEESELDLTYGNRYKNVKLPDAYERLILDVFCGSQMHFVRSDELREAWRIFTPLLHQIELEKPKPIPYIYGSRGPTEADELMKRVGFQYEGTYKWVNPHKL
T1 sequence (P11413 2-515 S188F limits assumed): as the sequence (P11413 2-515 limits assumed) above, with S187F counted along it

In the case of `SCCNCCc1c[nH]c2ccccc12` [AG1, 2-[2-(1H-indol-3-yl)ethylamino]ethanethiol], in assay [1], the “stability of G6PD” value was “stabilized”. In addition, the G6PD activity entry in assay [2] is reported as “increased”. Moreover, the ROS levels result in the assay on human erythrocytes is listed as “reduced”. Also, the “band 3 protein aggregation” value in assay [3] was “alleviated”.

Values taken from patent publication US20200223826A1, “Glucose-6-Phosphate Dehydrogenase (G6PD)-Modulating Agents And Methods Of Treating G6PD Deficiency” (The Board of Trustees of the Leland Stanford Junior …, priority 2017, published 2020).
